Assay results from US6329392A, “Substituted piperidines useful for the treatment of allergic diseases” (Aventis Pharmaceuticals, Inc., priority 1998, dated 2001).

Legend:
H1 receptor = molecular target: T1, H1 receptor (Cavia porcellus, UniProt P31389); assay: Histamine (H1) antagonism in guinea pig ileum; format: cell-based; conditions: read-out: H1 Receptor Antagonism, pA2, in vitro (converted)
T1 construct: A piece of ileum, about 20 cm in length, is removed and cut into 2 cm pieces; from tissue; host or cells: ileum of male Hartley guinea pigs
Procedure: Male Hartley guinea pigs, weighing 200-450 grams, are sacrificed by CO2 asphyxiation. A piece of ileum, about 20 cm in length, is removed and cut into 2 cm pieces. Each ileum piece is placed in an organ bath at 37° C. containing Tyrode's solution and is constantly aerated with 95% O2 /5%CO2. Tyrode's solution has the composition: NaCl 136.9 mM, KCl […], CaCl2 1.8 mM, NaH2 PO4 0.42 mM, NaHCO3 11.9 mM, and dextrose 5.55 mM. Contractions are measured with an isometric transducer (Grass FTO3C), and are recorded on a polygraph recorder and/or a computer. The ileum strips are loaded with 1.0 grams of tension and allowed to equilibrate for a minimum of 30 minutes before starting the experiments.
The potency of the antagonism is determined by the magnitude of the shift and is expressed as a pA2 value which is the negative logarithm of the molar concentration of antagonist which produces a two-fold shift of the dose response curve to the right. The pA2 value is calculated by using Schild analysis. O. Arunlakshana and H. O. Schild, Br. J. Pharmacol Chemother. 14, 48-58 (1958).
Table 1 presents pA2 values by the method of Example 93 which indicate potency of H1 receptor antagonism and IC50 values by the method of Example 95 which indicates NK1 receptor binding affinity for representative compounds of the present invention.

NK1 receptor = molecular target: T2, NK1 receptor (Cavia porcellus, UniProt P30547); assay: Antagonism of iodinated tachykinin (substance P) binding to NK1 receptors in guinea pig lungs; conditions: read-out: NK1 Receptor Binding Affinity, IC50
T2 construct: as evaluated in guinea pig lungs (Keystone Biologicals, Cleveland, Ohio); tissue Keystone Biologicals, Cleveland, Ohio; host or cells: guinea pig lung membranes
Procedure: Antagonism of iodinated tachykinin binding to NK1 receptors by putative antagonists
One skilled in the art can measure the NK1 receptor affinity of proposed tachykinin antagonists as evaluated in guinea pig lungs (Keystone Biologicals, Cleveland, Ohio). Tissues or cells are homogenized with a Polytron in 15 volumes of 50 mM Tris-HCl buffer (pH 7.4, […]) and centrifuged. The pellet is resuspended in Tris-HCl buffer and centrifuged; the pellet is washed twice by resuspension. The final pellet is resuspended at a concentration of 40 mg/ml incubation buffer and remains at room temperature for at least 15 min prior to use. […] Incubations are performed at room temperature for 90 min; binding is terminated by addition of 50 mM Tris-HCl buffer (pH 7.4, […]) and filtration under vacuum through GF/B filters presoaked with 0.1% polyethyleneimine. Filter bound radioactivity is quantitated in a gamma counter. […] IC50 values (concentration required to inhibit 50% of receptor binding) are generated for each of the test compounds by nonlinear regression using an iterative curve fitting program (GraphPAD Inplot, San Diego, Calif.).

T2 sequence (P30547 whole entry): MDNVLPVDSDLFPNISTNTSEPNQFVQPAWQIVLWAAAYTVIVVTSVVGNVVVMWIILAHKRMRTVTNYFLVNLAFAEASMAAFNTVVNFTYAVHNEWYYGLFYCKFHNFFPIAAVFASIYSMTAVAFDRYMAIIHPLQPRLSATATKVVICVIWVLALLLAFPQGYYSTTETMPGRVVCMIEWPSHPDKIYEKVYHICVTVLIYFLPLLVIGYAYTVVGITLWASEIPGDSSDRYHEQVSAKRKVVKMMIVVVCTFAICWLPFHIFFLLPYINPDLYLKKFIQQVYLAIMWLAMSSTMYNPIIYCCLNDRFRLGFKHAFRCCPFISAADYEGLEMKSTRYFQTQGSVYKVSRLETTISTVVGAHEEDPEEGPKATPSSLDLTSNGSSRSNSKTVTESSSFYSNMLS
T1 sequence (P31389 whole entry): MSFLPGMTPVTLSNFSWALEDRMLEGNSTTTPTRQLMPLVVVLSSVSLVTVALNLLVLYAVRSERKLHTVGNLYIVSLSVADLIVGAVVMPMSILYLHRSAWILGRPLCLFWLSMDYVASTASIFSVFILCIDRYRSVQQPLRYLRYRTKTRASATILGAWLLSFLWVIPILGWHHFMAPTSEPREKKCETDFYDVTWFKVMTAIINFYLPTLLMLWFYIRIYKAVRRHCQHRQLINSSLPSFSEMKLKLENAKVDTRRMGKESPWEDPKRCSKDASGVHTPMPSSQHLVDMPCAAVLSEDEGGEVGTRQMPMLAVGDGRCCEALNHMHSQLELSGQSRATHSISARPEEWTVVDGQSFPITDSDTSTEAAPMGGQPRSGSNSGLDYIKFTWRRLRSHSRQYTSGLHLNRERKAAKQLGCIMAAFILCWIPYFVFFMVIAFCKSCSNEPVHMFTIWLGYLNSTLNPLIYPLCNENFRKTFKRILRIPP

Row | Kb (H1 receptor) [µM] | IC50 (NK1 receptor) [µM] | Structure (SMILES)
1 | 0.0794 | 0.279 | CC(C)Oc1cccc(CC(=O)N2CCCC(CCN3CCC(C(=O)c4nc5ccccc5n4Cc4ccc(F)cc4)CC3)(c3ccc(Cl)c(Cl)c3)C2)c1 (stereo not drawn) [Example 63, 1-(3-Isopropoxy-phenyl-acetyl)-3-[2-[4-[1-(4-fluoro-benzyl)-1H-benzoimidazole-2-carbonyl]-piperidin-1-yl]-ethyl]-3-(3,4-dichloro-phenyl)-piperidine]
2 | 0.105 | 0.031 | CCOCCn1c(C(=O)C2CCN(CCC3(c4ccc(Cl)c(Cl)c4)CCN(C(=O)c4cc(OC)c(OC)c(OC)c4)C3)CC2)nc2ccccc21 (stereo not drawn) [Example 83, 1-(3,4,5-Trimethoxy-benzoyl)-3-[2-[4-[1-(2-ethoxy-ethyl)-1H-benzoimidazole-2-carbonyl]-piperidin-1-yl]-ethyl]-3-(3,4-dichloro-phenyl)-pyrrolidine]

Row | Structure (SMILES) | Kb (H1 receptor) [µM] | IC50 (NK1 receptor) [µM]
3 | COc1cc(CN2CCC(CCN3CCC(O)(c4nc5ccccc5n4Cc4ccc(F)cc4)CC3)(Cc3ccc(F)cc3F)C2=O)cc(OC)c1OC (stereo not drawn) [Example 58, 1-(3,4,5-Trimethoxy-benzyl)-3-[2-[4-[1-(4-fluoro-benzyl)-1H-benzoimidazol-2-yl]-4-hydroxy-piperidin-1-yl]-ethyl]-3-(2,4-difluoro-phenylmethyl)-2-oxo-pyrrolidine] | 0.151 | 0.345
